For series [1], the system named is White fly. Kind of series: Synergistic insecticidal effect of the combination, mortality of White fly (Table 2). The series is classed as in vivo. An excerpt: (§1) Evaluation of the synergistic insecticidal effect of the composition comprising Diafenthiuron, Pyriproxyfen and an insecticide Dinotefuran can be established by using any synergistic insecticidal composition prepared by the process described in the above examples. For these evaluations one or more of the synergistic insecticidal compositions prepared in the examples are used here.
(§2) Synergism can be calculated by using the Colby's method i.e. the expected (or predicted) response of the combination is calculated by taking the product of the observed response for each individual component of the combination when applied alone divided by 100 and subtracting this value from the sum of observed response for each component when applied alone. Synergism of the combination is then determined by comparing the observed response of the combination to the expected (or predicted) response as calculated from the observed response of each individual component alone. If the observed response of the combination is greater than the expected (or predicted) response then the combination is said to be synergistic and falls within the definition of synergistic effect. (Colby, S. R., Weeds, 1967(15), p. 20-22).

Series [2] concerns Jassids. Description: Synergistic insecticidal effect of the combination, mortality of Jassids (Table 3). The format is in vivo.
Text: as §1, §2

`CC(COc1ccc(Oc2ccccc2)cc1)Oc1ccccn1` (racemic) [Pyriproxyfen, 4-phenoxyphenyl (RS)-2-(2-pyridyloxy)propyl ether]: the “Observed Mortality %” value is listed as 30.70% in series [1] (Pyriproxyfen 72 ppm); 38.10% in series [1] (Pyriproxyfen 96 ppm); 43.70% in series [1] (Pyriproxyfen 120 ppm); 46.60% in series [1] (Pyriproxyfen 144 ppm); 21.70% in series [2] (Pyriproxyfen 72 ppm); 29.20% in series [2] (Pyriproxyfen 96 ppm). Also, the “Observed Mortality %” value in series [2] (Pyriproxyfen 120 ppm) was 35.50%; in series [2] (Pyriproxyfen 144 ppm), 37.90%.

Consider `CC(C)c1cc(Oc2ccccc2)cc(C(C)C)c1NC(=S)NC(C)(C)C` [Diafenthiuron, 1-tert-butyl-3-(2,6-di-isopropyl-4-phenoxyphenyl)thiourea], for which the “Observed Mortality %” value in series [1] (Diafenthiuron 120 ppm) is given as 38.40%; in series [1] (Diafenthiuron 240 ppm), 48.50%; in series [1] (Diafenthiuron 360 ppm) it was 57.30%; in series [1] (Diafenthiuron 480 ppm), 61.80%; in series [2] (Diafenthiuron 120 ppm), 28.90%; in series [2] (Diafenthiuron 240 ppm) it was 42.00%. Moreover, the results for the “Observed Mortality %” value in series [2] (Diafenthiuron 360 ppm) and in series [2] (Diafenthiuron 480 ppm) were 48.50% and 57.40%, respectively.

Consider `CN/C(=N/CC1CCOC1)N[N+](=O)[O-]` (stereo not drawn) [Dinotefuran, 2-methyl-1-nitro-3-[(tetrahydro-3-furanyl)methyl]guanidine], for which the “Observed Mortality %” value is recorded as 35.10% in series [1] (Dinotefuran 45 ppm); 45.50% in series [1] (Dinotefuran 60 ppm); 52.00% in series [1] (Dinotefuran 75 ppm); 61.40% in series [1] (Dinotefuran 90 ppm); 65.60% in series [2] (Dinotefuran 45 ppm); 73.40% in series [2] (Dinotefuran 60 ppm). For the same compound, the “Observed Mortality %” value in series [2] (Dinotefuran 75 ppm) was found to be 79.00%; in series [2] (Dinotefuran 90 ppm), 83.80%.

The values above are taken from patent publication US20230225324A1, “Synergistic Pesticidal Composition Against Sucking Pests Complex” (priority 2020, published 2023).
